# From patent US8026258B2, “Aryloxyalkylcarbamate-type derivatives, preparation method thereof and use of same in therapeutics” (Sanofi-Aventis, priority 2004, dated 2011)
# Tests used:
# [1] = biological target: T1, FAAH (Fatty Acid Amide Hydrolase) (Mus musculus, UniProt O08914); test: Radioenzymatic FAAH inhibition assay (hydrolysis of anandamide [ethanolamine 1-3H]) in mouse brain membrane homogenates; type: biochemical; settings: mouse brain membrane homogenate; anandamide 10 μM; 15 minutes at 25° C.; read-out: IC50 (concentration inhibiting by 50% the control enzyme activity of FAAH)
# T1 construct: Membrane homogenates are prepared at the time of use by homogenizing the tissues in a Polytron; from tissue; host or cells: mouse brain (minus the cerebellum), membrane homogenate
# T1 sequence (O08914 1-579): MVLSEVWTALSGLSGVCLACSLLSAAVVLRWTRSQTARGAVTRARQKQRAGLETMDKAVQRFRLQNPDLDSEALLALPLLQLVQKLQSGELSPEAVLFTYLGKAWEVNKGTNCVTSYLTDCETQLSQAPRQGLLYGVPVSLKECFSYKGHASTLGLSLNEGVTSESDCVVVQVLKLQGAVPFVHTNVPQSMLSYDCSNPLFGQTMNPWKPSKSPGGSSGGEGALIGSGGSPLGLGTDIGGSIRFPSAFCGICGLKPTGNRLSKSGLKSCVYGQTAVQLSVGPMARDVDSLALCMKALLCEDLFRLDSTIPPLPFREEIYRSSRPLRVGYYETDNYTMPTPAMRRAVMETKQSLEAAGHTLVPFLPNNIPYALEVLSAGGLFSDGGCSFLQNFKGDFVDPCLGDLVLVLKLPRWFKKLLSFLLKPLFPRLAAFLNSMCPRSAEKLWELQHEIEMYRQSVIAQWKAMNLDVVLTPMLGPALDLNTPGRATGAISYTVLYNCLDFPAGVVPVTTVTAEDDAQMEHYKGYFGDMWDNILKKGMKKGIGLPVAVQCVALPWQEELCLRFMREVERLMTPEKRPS
# Description: The compounds of the invention were subjected to pharmacological tests permitting determination of their inhibitory effect on the enzyme FAAH (Fatty Acid Amide Hydrolase).
# Accordingly, mouse brains (minus the cerebellum) are removed and stored at −80° C. Membrane homogenates are prepared at the time of use by homogenizing the tissues in a Polytron in a 10 mM Tris-HCl buffer (pH 8.0) containing 150 mM NaCl and 1 mM EDTA. The enzyme reaction is subsequently conducted in 70 μl of buffer containing bovine serum albumin without fatty acids (1 mg/ml). In succession, the test compounds, at various concentrations, anandamide [ethanolamine 1-^3H] (specific activity: 15-20 Ci/mmol) diluted to 10 μM with cold anandamide, and the membrane preparation (400 μg of frozen tissue per assay) are added. After 15 minutes at 25° C. the enzyme reaction is terminated by adding 140 μl of chloroform/methanol (2:1). The mixture is stirred for 10 minutes and then centrifuged for 15 minutes at 3500 g. An aliquot (30 μl) of the aqueous phase containing the ethanolamine [1-^3H] is counted by liquid scintillation.
# male OF1 mice = test: Analgesia test: PBQ (phenylbenzoquinone)-induced abdominal stretches; type: in vivo, mouse; settings: oral, dose of 1 mg/kg, at 2 hours, PBQ 2 mg/kg i.p.
# Description: The in vivo activity of the compounds of the invention was evaluated in an analgesia test.
# Accordingly, intraperitoneal (i.p.) administration of PBQ (phenylbenzoquinone, 2 mg/kg in a 0.9% sodium chloride solution containing 5% of ethanol) to male OF1 mice weighing 25 to 30 g causes abdominal stretches, on average 30 twists or contractions during the period from 5 to 15 minutes after injection. The test compounds are administered orally in suspension in Tween 80 at 0.5%, 60 minutes or 120 minutes before the administration of PBQ. […] For example, compound 58 of the table reduces by 51% the number of stretches induced by PBQ, at a dose of 1 mg/kg at 2 hours.
melting point [°C],IC50 [1] [nM],SMILES,reduction of the number of stretches induced by PBQ (male OF1 mice) [%]
147 to 149,–,"CNC(=O)COC(=O)NCCOc1ccc(Cl)cc1 [Compound 1, 2-(methylamino)-2-oxoethyl{2-[(4-chlorophenyl)-oxy]ethyl}carbamate]",–
204 to 206,–,"N#Cc1ccc(OCCNC(=O)OCC(N)=O)cc1 [Compound 11, 2-amino-2-oxoethyl (2-[(4-cyanophenyl)oxy]ethyl)-carbamate]",–
80 to 82,470,"NC(=O)COC(=O)NCCCCOc1cccc2ccccc12 [Compound 58, 2-amino-2-oxoethyl [4-(1-naphthalenyloxy]butyl]-carbamate]",51
161 to 163,–,"NC(=O)COC(=O)N1CCC(COc2cccc3ccccc23)C1 (centres unmarked) [Compound 83, 2-amino-2-oxoethyl 3-[(1-naphthalenyloxy)methyl]-1-pyrrolidinecarboxylate]",–
117 to 119,–,"CNC(=O)COC(=O)N1CCC(Oc2ccc(-c3ccc(F)cc3)cc2)CC1 [Compound 85, 2-(methylamino)-2-oxoethyl 4-[(4′-fluoro-4-biphenyl)-oxy]-1-piperidinecarboxylate]",–
163 to 165,–,"CNC(=O)COC(=O)N1CCC(COc2ccc(Br)cc2)CC1 [Compound 120, 2-(methylamino)-2-oxoethyl 4-{[(4-bromophenyl)oxy]-methyl}-1-piperidinecarboxylate]",–
135 to 136,–,"NC(=O)COC(=O)N1CCC(COc2cccc3ccccc23)CC1 [Compound 137, 2-amino-2-oxoethyl 4-[(1-naphthalenyloxy)methyl]-1-piperidinecarboxylate]",–
137 to 139,–,"NC(=O)COC(=O)N1CCC(COc2ccc3cccnc3c2)CC1 [Compound 148, 2-amino-2-oxoethyl 4-[(7-quinolinyloxy)methyl]-1-piperidinecarboxylate]",–
197 to 199,–,"CNC(=O)COC(=O)N1CCC(COc2ccc(-c3ccc(C(F)(F)F)cc3)cc2)CC1 [Compound 154, 2-(methylamino)-2-oxoethyl 4-{[(4′-(trifluoromethyl)-4-biphenyl)oxy]methyl}-1-piperidinecarboxylate]",–
101 to 103,–,"CNC(=O)COC(=O)N1CCC(CCOc2ccc(Br)cc2)CC1 [Compound 168, 2-(methylamino)-2-oxoethyl 4-{2-[(4-bromophenyl)-oxy]ethyl}-1-piperidinecarboxylate]",–
179 to 181,–,"NC(=O)COC(=O)N1CCC(CCOc2ccc3ccncc3c2)CC1 [Compound 183, 2-amino-2-oxoethyl 4-[2-(7-isoquinolinyloxy)ethyl]-1-piperidinecarbamate]",–
104 to 106,–,"CNC(=O)COC(=O)N1CCC(CCOc2ccc(-c3ccc(Cl)cc3)cc2)CC1 [Compound 186, 2-(methylamino)-2-oxoethyl 4-{2-[(4′-chloro-4-biphenyl)oxy]ethyl}-1-piperidinecarboxylate]",–
